# Key:
# [1] = target: Phosphatidylinositol 5-phosphate 4-kinase type-2 gamma (Homo sapiens) (UniProt Q8TBX8); details: Compound concentration 100.0 nM
# Rattus norvegicus [2] = organism: Rattus norvegicus; experiment: Testosterone Eurofins-Panlabs radioligand binding assay; parameters: ligand concentration 1.5 nM; details: Compound concentration 10.0 uM
# Rattus norvegicus [3] = organism: Rattus norvegicus; experiment: Inhibition of Glutamate, NMDA, Phencyclidine at 10 µM in the Eurofins-Panlabs radioligand binding assay (Eurofins_assay_233000); assay type: protein-complex assay; details: Compound concentration 10.0 uM
# [4] = target: Prostaglandin G/H synthase 2 (Homo sapiens) (UniProt P35354); experiment: Inhibition of Cyclooxygenase COX-2 at compound concentration of 10.0 uM in the Eurofins-Panlabs enzyme assay (Eurofins_assay_118010); parameters: substrate with concentration 0.3 uM Arachidonic acid, incubation time 15 min, incubation temperature 37 C; details: Compound concentration 10.0 uM
# [5] = target: Monoamine oxidase A (MAO-A) (Homo sapiens, UniProt P21397); experiment: Inhibition of Monoamine Oxidase MAO-A at compound concentration of 10.0 uM in the Eurofins-Panlabs enzyme assay (Eurofins_assay_140010); parameters: substrate with concentration 50 uM Kynuramine, incubation time 60 min, incubation temperature 37 C; details: recombinant human MAO-A expressed in insect Hi5 cells, probe kynuramine, compound concentration 10 uM
# [6] = Inhibition of Atrial Natriuretic Factor (ANF) at 10 µM in the Eurofins-Panlabs radioligand binding assay (Eurofins_assay_211000); details: Cavia porcellus; Compound concentration 10 uM; Assay protocol publication PMID: 2408776; Detection method Radioligand Binding; Incubation temperature 4 °C; Incubation time 60 min; Ligand Bmax 0.013 pM/ mg protein; Ligand Kd 0.14 nM; Ligand [125I] ANF (rat); Ligand concentration 0.016 nM; Ligand specific binding 78 %; Non-specific ligand with concentration 0.1 µM ANF (rat); Reference compound ANF (rat); Source of …
# [7] = target: 5-hydroxytryptamine receptor 3A (Homo sapiens) (UniProt P46098); experiment: Inhibition of Serotonin (5-Hydroxytryptamine) 5-HT3 at 10 µM in the Eurofins-Panlabs radioligand binding assay (Eurofins_assay_271910); parameters: ligand concentration 0.69 nM; details: Compound concentration 10.0 uM
# [8] = target: 5-hydroxytryptamine receptor 6 (Homo sapiens) (UniProt P50406); experiment: Inhibition of Serotonin (5-Hydroxytryptamine) 5-HT6 at 10 µM in the Eurofins-Panlabs radioligand binding assay (Eurofins_assay_272200); details: Compound concentration 10.0 uM
# [9] = target: Monoamine oxidase B (MAO-B) (Homo sapiens, UniProt P27338); experiment: Inhibition of Monoamine Oxidase MAO-B at compound concentration of 10.0 uM in the Eurofins-Panlabs enzyme assay (Eurofins_assay_140120); parameters: substrate with concentration 50 uM Kynuramine, incubation time 60 min, incubation temperature 37 C; details: recombinant human MAO-B expressed in insect Hi5 cells, probe kynuramine, compound concentration 10 uM
# Bos taurus = organism: Bos taurus; experiment: Protein Serine/Threonine Kinase, PKA, Non-Selective Eurofins-Panlabs enzyme assay; assay type: protein-complex assay; parameters: substrate with concentration 370 µg/mL Histone Type III-S, incubation time 15 min, incubation temperature 25 °C; details: Compound concentration 10.0 uM
# Homo sapiens [10] = organism: Homo sapiens; experiment: Glutamate, Metabotropic, mGlu5 Eurofins-Panlabs radioligand binding assay; details: Compound concentration 10.0 uM
# [11] = target: Melanin-concentrating hormone receptor 1 (Homo sapiens) (UniProt Q99705); experiment: Melanin-Concentrating Hormone MCH1 (SLC1) Eurofins-Panlabs radioligand binding assay; parameters: ligand concentration 0.05 nM; details: Compound concentration 10.0 uM
# [12] = target: Progesterone receptor (Homo sapiens) (UniProt P06401); experiment: Inhibition of Progesterone PR-B at 10 µM in the Eurofins-Panlabs radioligand binding assay (Eurofins_assay_268020); parameters: ligand concentration 1.4 nM; details: Compound concentration 10.0 uM
# [13] = target: Vasopressin V1b receptor (Homo sapiens) (UniProt P47901); experiment: Inhibition of Vasopressin V1B at 10 µM in the Eurofins-Panlabs radioligand binding assay (Eurofins_assay_287560); parameters: ligand concentration 1 nM; details: Compound concentration 10.0 uM
# [14] = target: Epidermal growth factor receptor (Homo sapiens) (UniProt P00533); experiment: Protein Tyrosine Kinase, EGF Receptor Eurofins-Panlabs enzyme assay; parameters: substrate with concentration 10 µg/mL Poly(Glu:Tyr), incubation time 60 min, incubation temperature 25 °C; details: Compound concentration 10.0 uM
# Homo sapiens [15] = organism: Homo sapiens; experiment: Cholecystokinin CCK2 (CCKB) Eurofins-Panlabs radioligand binding assay; parameters: ligand concentration 0.072 nM, non-specific ligand with concentration 1 µM Sincalide, incubation time 3 h, incubation temperature 25 °C; details: Compound concentration 10.0 uM
# [16] = target: Glutamate NMDA receptor; GRIN1/GRIN2A (Homo sapiens) (UniProt Q05586+Q12879); experiment: NMDA-NR1a/NR2a Eurofins-Panlabs radioligand binding assay; assay type: protein-complex assay; details: Compound concentration 10.0 uM
# [17] = target: Somatostatin receptor type 2 (Homo sapiens) (UniProt P30874); experiment: Somatostatin sst2 Eurofins-Panlabs radioligand binding assay; parameters: ligand concentration 0.03 nM; details: Compound concentration 10.0 uM
# [18] = target: Sodium-dependent serotonin transporter (Homo sapiens) (UniProt P31645); details: Compound concentration 10.0 uM
# [19] = target: D(1A) dopamine receptor (Homo sapiens) (UniProt P21728); details: Compound concentration 10.0 uM
# [20] = target: Mu-type opioid receptor (Homo sapiens) (UniProt P35372); details: Compound concentration 10.0 uM
# [21] = target: T1, 5-hydroxytryptamine receptor 1A (Homo sapiens) (UniProt P08908); details: Compound concentration 10.0 uM
# T1 sequence (whole entry): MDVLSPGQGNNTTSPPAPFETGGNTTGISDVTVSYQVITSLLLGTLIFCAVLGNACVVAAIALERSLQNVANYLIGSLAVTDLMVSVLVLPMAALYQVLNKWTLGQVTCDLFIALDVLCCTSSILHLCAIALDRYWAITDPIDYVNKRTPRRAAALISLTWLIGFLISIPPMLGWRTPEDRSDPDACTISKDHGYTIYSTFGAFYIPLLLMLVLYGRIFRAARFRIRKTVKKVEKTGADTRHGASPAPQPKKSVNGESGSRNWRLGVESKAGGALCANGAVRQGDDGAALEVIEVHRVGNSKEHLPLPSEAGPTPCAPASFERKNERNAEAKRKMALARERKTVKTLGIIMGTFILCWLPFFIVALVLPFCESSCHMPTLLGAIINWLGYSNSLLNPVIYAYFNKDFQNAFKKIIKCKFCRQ
# [22] = target: 5-hydroxytryptamine receptor 2B (Homo sapiens) (UniProt P41595); details: Compound concentration 10.0 uM
# [23] = target: Beta-3 adrenergic receptor (Homo sapiens) (UniProt P13945); details: Compound concentration 10.0 uM
# [24] = target: T2, 5-hydroxytryptamine receptor 2C (Homo sapiens) (UniProt P28335); details: Compound concentration 10.0 uM
# T2 sequence (whole entry): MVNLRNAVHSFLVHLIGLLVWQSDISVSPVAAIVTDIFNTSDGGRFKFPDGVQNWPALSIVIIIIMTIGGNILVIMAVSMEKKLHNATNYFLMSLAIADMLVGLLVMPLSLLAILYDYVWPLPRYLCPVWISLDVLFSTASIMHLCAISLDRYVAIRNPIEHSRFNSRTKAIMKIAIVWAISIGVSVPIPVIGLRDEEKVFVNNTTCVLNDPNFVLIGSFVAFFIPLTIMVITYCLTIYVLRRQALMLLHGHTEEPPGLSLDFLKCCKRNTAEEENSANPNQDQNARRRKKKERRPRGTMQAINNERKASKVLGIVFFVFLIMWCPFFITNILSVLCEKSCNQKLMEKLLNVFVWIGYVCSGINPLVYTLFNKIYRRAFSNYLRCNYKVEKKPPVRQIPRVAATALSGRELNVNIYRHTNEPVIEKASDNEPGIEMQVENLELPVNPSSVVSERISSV
# [25] = target: Cannabinoid receptor 2 (Homo sapiens) (UniProt P34972); details: Compound concentration 10.0 uM
# [26] = target: Gamma-aminobutyric acid type B receptor subunit 1 (Homo sapiens) (UniProt Q9UBS5); details: Rattus norvegicus; Compound concentration 10.0 uM
# Chain of Gamma-aminobutyric acid type B receptor subunit 1 (Homo sapiens) (Q9UBS5 whole entry): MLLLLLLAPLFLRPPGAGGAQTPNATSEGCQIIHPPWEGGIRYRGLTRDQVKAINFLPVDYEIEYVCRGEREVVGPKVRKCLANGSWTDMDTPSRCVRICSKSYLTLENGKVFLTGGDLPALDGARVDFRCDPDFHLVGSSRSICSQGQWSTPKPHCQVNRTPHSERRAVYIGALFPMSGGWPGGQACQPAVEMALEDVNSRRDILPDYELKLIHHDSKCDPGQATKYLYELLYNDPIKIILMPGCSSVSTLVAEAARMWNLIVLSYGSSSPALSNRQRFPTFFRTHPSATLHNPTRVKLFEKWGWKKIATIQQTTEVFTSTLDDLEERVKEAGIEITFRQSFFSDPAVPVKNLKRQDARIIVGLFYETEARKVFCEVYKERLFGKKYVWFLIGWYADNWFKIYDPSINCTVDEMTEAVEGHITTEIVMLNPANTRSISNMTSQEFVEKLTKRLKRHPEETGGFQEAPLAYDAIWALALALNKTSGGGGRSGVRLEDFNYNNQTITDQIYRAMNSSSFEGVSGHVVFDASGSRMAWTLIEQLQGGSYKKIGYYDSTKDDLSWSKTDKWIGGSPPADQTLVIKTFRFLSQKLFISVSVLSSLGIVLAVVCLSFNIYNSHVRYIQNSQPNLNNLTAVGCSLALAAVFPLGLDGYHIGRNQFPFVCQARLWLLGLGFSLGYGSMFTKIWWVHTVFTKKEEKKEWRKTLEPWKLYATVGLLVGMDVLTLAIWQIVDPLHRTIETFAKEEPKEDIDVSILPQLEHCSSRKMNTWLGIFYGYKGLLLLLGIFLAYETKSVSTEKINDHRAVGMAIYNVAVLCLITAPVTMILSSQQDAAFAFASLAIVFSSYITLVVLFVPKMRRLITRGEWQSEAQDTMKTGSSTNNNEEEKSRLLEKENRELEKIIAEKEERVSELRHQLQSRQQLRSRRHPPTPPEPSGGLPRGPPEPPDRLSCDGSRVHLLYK
# Chain of Prostaglandin G/H synthase 2 (Homo sapiens) (P35354 whole entry): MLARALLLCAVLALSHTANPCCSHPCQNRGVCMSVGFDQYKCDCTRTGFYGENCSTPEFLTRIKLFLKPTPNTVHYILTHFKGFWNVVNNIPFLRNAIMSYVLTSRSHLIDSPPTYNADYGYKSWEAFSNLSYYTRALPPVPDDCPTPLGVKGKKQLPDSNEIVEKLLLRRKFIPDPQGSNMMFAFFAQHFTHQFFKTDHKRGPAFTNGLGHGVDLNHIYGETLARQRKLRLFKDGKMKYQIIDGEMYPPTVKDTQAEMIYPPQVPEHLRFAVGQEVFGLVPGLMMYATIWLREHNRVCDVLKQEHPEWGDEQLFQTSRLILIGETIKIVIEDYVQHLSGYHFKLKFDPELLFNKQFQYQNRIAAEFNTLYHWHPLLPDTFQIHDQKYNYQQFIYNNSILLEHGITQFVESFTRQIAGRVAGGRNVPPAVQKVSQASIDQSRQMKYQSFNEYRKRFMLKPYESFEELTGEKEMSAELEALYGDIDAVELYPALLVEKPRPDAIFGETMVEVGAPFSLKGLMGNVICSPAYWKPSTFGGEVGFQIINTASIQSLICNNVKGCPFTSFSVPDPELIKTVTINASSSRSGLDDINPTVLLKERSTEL
# Chain of Beta-3 adrenergic receptor (Homo sapiens) (P13945 whole entry, looked up): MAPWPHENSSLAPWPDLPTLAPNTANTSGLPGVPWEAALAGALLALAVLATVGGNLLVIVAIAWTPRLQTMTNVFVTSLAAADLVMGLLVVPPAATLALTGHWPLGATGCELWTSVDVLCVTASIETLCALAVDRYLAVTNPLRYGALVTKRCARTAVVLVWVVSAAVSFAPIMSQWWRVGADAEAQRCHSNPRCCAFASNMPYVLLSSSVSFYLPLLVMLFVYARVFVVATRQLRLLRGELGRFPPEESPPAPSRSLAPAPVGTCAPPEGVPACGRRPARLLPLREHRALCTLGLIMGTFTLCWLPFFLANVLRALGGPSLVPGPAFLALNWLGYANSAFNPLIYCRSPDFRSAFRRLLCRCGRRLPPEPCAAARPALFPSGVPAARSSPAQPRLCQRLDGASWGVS
# Chain of 5-hydroxytryptamine receptor 3A (Homo sapiens) (P46098 whole entry): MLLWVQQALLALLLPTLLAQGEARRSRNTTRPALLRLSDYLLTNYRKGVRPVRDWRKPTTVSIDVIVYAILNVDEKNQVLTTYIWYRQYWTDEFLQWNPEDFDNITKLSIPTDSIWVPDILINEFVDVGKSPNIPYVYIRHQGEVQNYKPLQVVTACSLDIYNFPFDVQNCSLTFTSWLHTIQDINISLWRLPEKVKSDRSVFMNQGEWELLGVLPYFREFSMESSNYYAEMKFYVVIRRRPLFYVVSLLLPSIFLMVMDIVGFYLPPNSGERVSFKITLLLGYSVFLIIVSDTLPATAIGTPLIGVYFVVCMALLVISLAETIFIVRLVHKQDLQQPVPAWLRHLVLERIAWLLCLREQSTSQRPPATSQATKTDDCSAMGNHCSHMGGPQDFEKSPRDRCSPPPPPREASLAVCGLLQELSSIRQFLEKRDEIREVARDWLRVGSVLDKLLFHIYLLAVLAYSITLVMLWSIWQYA
# Chain of Somatostatin receptor type 2 (Homo sapiens) (P30874 whole entry): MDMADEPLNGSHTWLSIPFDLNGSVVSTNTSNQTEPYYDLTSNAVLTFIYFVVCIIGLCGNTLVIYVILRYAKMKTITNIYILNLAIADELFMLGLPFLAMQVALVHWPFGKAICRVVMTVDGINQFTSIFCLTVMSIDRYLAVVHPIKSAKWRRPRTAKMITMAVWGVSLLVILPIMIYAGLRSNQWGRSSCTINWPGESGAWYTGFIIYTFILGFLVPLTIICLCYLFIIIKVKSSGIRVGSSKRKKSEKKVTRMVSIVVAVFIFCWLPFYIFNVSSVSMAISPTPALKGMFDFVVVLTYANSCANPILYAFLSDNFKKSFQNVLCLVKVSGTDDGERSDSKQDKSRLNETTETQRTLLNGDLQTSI
# Chain of 5-hydroxytryptamine receptor 2B (Homo sapiens) (P41595 whole entry): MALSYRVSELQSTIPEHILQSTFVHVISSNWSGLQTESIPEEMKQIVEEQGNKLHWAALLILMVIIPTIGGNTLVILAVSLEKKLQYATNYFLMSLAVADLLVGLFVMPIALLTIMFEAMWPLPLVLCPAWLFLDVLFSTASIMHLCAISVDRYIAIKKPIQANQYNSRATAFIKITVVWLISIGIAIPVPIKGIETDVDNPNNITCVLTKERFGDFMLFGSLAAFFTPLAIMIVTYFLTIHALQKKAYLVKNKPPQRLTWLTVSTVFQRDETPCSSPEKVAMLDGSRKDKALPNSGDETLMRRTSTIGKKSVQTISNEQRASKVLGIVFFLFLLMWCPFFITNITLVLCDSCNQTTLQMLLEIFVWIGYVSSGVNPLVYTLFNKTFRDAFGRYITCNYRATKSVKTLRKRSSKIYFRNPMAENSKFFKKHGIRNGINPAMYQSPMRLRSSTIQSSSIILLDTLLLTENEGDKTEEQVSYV
# Chain of Sodium-dependent serotonin transporter (Homo sapiens) (P31645 whole entry, looked up): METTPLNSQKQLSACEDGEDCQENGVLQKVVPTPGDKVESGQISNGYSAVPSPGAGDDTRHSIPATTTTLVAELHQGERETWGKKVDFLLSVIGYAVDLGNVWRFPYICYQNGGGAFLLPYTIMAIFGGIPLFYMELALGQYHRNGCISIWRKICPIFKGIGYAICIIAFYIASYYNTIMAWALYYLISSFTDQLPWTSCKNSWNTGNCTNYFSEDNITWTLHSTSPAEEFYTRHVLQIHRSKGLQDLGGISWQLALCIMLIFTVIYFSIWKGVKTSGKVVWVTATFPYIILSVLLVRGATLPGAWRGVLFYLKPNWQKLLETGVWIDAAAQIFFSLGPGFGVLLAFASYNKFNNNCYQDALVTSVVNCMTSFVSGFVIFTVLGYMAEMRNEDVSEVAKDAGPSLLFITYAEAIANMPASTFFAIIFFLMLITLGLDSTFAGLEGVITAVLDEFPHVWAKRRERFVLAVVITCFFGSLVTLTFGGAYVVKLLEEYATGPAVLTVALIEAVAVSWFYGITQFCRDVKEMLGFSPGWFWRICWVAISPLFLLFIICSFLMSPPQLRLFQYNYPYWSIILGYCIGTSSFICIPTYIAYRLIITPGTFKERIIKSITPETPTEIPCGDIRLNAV
# Chain of Vasopressin V1b receptor (Homo sapiens) (P47901 whole entry): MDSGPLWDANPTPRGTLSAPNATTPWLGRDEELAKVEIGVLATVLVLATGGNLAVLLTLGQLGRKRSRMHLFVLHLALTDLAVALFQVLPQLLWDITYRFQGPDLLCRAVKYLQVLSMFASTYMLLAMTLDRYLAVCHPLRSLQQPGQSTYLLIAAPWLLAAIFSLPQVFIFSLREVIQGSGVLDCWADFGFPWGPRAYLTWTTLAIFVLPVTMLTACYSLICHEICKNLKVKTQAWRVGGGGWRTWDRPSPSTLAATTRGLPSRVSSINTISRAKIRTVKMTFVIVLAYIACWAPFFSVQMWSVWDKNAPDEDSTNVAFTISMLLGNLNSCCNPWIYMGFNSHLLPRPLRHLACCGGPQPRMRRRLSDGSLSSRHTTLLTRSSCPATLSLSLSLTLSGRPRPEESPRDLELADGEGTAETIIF
# Chain of Phosphatidylinositol 5-phosphate 4-kinase type-2 gamma (Homo sapiens) (Q8TBX8 whole entry): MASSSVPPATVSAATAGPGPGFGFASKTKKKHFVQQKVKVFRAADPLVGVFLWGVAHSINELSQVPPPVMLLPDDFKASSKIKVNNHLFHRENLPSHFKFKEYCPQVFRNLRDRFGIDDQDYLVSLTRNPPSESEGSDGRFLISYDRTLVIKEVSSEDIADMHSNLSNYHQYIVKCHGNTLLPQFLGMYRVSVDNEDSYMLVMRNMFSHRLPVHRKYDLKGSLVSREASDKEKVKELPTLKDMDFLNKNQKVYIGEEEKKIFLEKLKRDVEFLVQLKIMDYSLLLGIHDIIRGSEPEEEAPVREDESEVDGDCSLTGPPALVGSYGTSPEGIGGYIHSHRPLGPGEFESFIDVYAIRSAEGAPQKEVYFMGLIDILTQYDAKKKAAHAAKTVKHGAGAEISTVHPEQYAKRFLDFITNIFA
structure (smiles),measurement,setting,value
CC(C)CC(=O)N1CCc2nc(-c3ccc(Br)cc3)nc(N(C)Cc3ccccc3)c2C1 [THPP-1-NC],residual activity,[1],96%
COCCOc1nc(-c2ccc(Cl)nc2)nc2c1CN(C(=O)c1ncn3ccccc13)CC2 [THPP-1],inhibition,Rattus norvegicus [2],7%
same,inhibition,Rattus norvegicus [3],-10%
same,inhibition,[4],-10%
same,"inhibition at 60 min, 10 µM",[5],42% (not active)
same,inhibition at 10 µM,[6],0% (not active)
same,inhibition,[7],-8%
same,inhibition,[8],5%
same,"inhibition at 60 min, 10 µM",[9],32% (not active)
same,inhibition,Bos taurus,-7%
same,inhibition,Homo sapiens [10],22%
same,inhibition,[11],4%
same,inhibition,[12],12%
same,inhibition,[13],5%
same,inhibition,[14],6%
same,inhibition,Homo sapiens [15],-8%
same,inhibition,[16],-7%
same,inhibition,[17],0%
same,inhibition,[18],2.72%
same,inhibition,[19],6%
same,inhibition,[20],2%
same,inhibition,[21],8%
same,inhibition,[22],-1%
same,inhibition,[23],1%
same,inhibition,[24],22%
same,inhibition,[25],28%
same,inhibition,[26],-5%

# Reference: ChEMBL document CHEMBL4507293 (2021)
